# Tested on: patients with seasonal allergic rhinitis (SAR)
# Test: MP 428 study: individual symptom severity scores (runny nose, itchy nose, sneezing, congestion; 0-3 scale)
# Type: in vivo, human
# Conditions: Intent-to-Treat Population
# Procedure: A two-week, randomized, double-blind study, which evaluated the effects of the co-administration of ASTELIN® (azelastine hydrochloride (HCl)) and FLONASE® (fluticasone propionate) compared to either product alone in patients with seasonal allergic rhinitis (SAR) was conducted during the 2006 Texas mountain cedar season. After a 5-day placebo lead-in period, 151 patients with moderate-to-severe allergic rhinitis symptoms were randomized to either: (1) (49 total patients) ASTELIN® (azelastine hydrochloride (HCl)) plus placebo saline nasal spray 2 sprays per nostril, 15 minutes apart, twice daily (AM & PM); (2) (50 total patients) FLONASE® (fluticasone propionate) plus placebo saline nasal spray, 2 sprays per nostril, 15 minutes apart, once daily (AM) and two sessions of placebo saline nasal spray, 2 sprays per nostril, 15 minutes apart (PM); or (3) (52 total patients) the co-administration of ASTELIN® (azelastine hydrochloride (HCl)) 2 sprays per nostril plus FLONASE® (fluticasone propionate) 2 sprays per nostril (AM), 15 minutes apart, and ASTELIN® (azelastine hydrochloride (HCl)) 2 sprays per nostril plus placebo saline nasal spray, 15 minutes apart, (PM) for a 2-week double-blind treatment period.
# The primary efficacy variable was the change from baseline in the Total Nasal Symptom Score (TNSS), which comprised sneezing, itchy nose, runny nose, and nasal congestion (individual symptoms scores were assigned a value between 0 and 3, where 0=no symptoms and 3=severe symptoms). This study was not statistically designed to assess the differences between ASTELIN® and FLONASE®.
# The results of the clinical trial are summarized and presented in Appendix A hereinbelow and in FIGS. 1-6. […] FIGS. 2-5 show the mean improvement in severity score (0-3 scale) from baseline for the symptoms of runny nose, itchy nose, sneezing and congestion, respectively.
structure (smiles),measurement,setting,value
"CCC(=O)O[C@]1(C(=O)SCF)[C@H](C)C[C@H]2[C@@H]3C[C@H](F)C4=CC(=O)C=C[C@]4(C)[C@@]3(F)[C@@H](O)C[C@@]21C [Fluticasone, fluticasone propionate]","Percent Change from Baseline in AM and PM Combined Nasal Symptom Score: Congestion, LS Mean",Day 5,−18.74%
same,"Percent Change from Baseline in AM and PM Combined Nasal Symptom Score: Congestion, Mean",Day 5,−19.38%
same,"Percent Change from Baseline in AM and PM Combined Nasal Symptom Score: Congestion, Median",Day 5,−14.29%
same,"Percent Change from Baseline in AM and PM Combined Nasal Symptom Score: Itchy Nose, LS Mean",Day 5,−25.02%
same,"Percent Change from Baseline in AM and PM Combined Nasal Symptom Score: Itchy Nose, Mean",Day 5,−24.64%
same,"Percent Change from Baseline in AM and PM Combined Nasal Symptom Score: Itchy Nose, Median",Day 5,−25.00%
same,"Percent Change from Baseline in AM and PM Combined Nasal Symptom Score: Runny Nose, LS Mean",Day 5,−22.06%
same,"Percent Change from Baseline in AM and PM Combined Nasal Symptom Score: Runny Nose, Mean",Day 5,−22.31%
same,"Percent Change from Baseline in AM and PM Combined Nasal Symptom Score: Runny Nose, Median",Day 5,−21.31%
same,"Percent Change from Baseline in AM and PM Combined Nasal Symptom Score: Sneezing, LS Mean",Day 5,−35.40%
same,"Percent Change from Baseline in AM and PM Combined Nasal Symptom Score: Sneezing, Mean",Day 5,−34.14%
same,"Percent Change from Baseline in AM and PM Combined Nasal Symptom Score: Sneezing, Median",Day 5,−33.33%
same,"Change from Baseline in AM and PM Combined Nasal Symptom Score: Congestion, LS Mean",Day 6,−1.03
same,"Change from Baseline in AM and PM Combined Nasal Symptom Score: Congestion, Mean",Day 6,−1.10
same,"Change from Baseline in AM and PM Combined Nasal Symptom Score: Congestion, Median",Day 6,−0.83
same,"Change from Baseline in AM and PM Combined Nasal Symptom Score: Itchy Nose, LS Mean",Day 6,−1.21
same,"Change from Baseline in AM and PM Combined Nasal Symptom Score: Itchy Nose, Mean",Day 6,−1.21
same,"Change from Baseline in AM and PM Combined Nasal Symptom Score: Itchy Nose, Median",Day 6,−1.00
same,"Change from Baseline in AM and PM Combined Nasal Symptom Score: Runny Nose, LS Mean",Day 6,−1.35
same,"Change from Baseline in AM and PM Combined Nasal Symptom Score: Runny Nose, Mean",Day 6,−1.35
same,"Change from Baseline in AM and PM Combined Nasal Symptom Score: Runny Nose, Median",Day 6,−1.00
same,"Change from Baseline in AM and PM Combined Nasal Symptom Score: Sneezing, LS Mean",Day 6,−1.51
same,"Change from Baseline in AM and PM Combined Nasal Symptom Score: Sneezing, Mean",Day 6,−1.44
same,"Change from Baseline in AM and PM Combined Nasal Symptom Score: Sneezing, Median",Day 6,−1.27
same,"Percent Change from Baseline in AM and PM Combined Nasal Symptom Score: Congestion, LS Mean",Day 6,−19.32%
same,"Percent Change from Baseline in AM and PM Combined Nasal Symptom Score: Congestion, Mean",Day 6,−20.16%
same,"Percent Change from Baseline in AM and PM Combined Nasal Symptom Score: Congestion, Median",Day 6,−14.29%
same,"Percent Change from Baseline in AM and PM Combined Nasal Symptom Score: Itchy Nose, LS Mean",Day 6,−27.12%
same,"Percent Change from Baseline in AM and PM Combined Nasal Symptom Score: Itchy Nose, Mean",Day 6,−26.87%
same,"Percent Change from Baseline in AM and PM Combined Nasal Symptom Score: Itchy Nose, Median",Day 6,−24.76%
same,"Percent Change from Baseline in AM and PM Combined Nasal Symptom Score: Runny Nose, LS Mean",Day 6,−22.60%
same,"Percent Change from Baseline in AM and PM Combined Nasal Symptom Score: Runny Nose, Mean",Day 6,−22.47%
same,"Percent Change from Baseline in AM and PM Combined Nasal Symptom Score: Runny Nose, Median",Day 6,−18.64%
same,"Percent Change from Baseline in AM and PM Combined Nasal Symptom Score: Sneezing, LS Mean",Day 6,−32.10%
same,"Percent Change from Baseline in AM and PM Combined Nasal Symptom Score: Sneezing, Mean",Day 6,−31.22%
same,"Percent Change from Baseline in AM and PM Combined Nasal Symptom Score: Sneezing, Median",Day 6,−32.77%
same,"Change from Baseline in AM and PM Combined Nasal Symptom Score: Congestion, LS Mean",Day 7,−1.03
same,"Change from Baseline in AM and PM Combined Nasal Symptom Score: Congestion, Mean",Day 7,−1.10
same,"Change from Baseline in AM and PM Combined Nasal Symptom Score: Congestion, Median",Day 7,−1.08
same,"Change from Baseline in AM and PM Combined Nasal Symptom Score: Itchy Nose, LS Mean",Day 7,−1.30
same,"Change from Baseline in AM and PM Combined Nasal Symptom Score: Itchy Nose, Mean",Day 7,−1.27
same,"Change from Baseline in AM and PM Combined Nasal Symptom Score: Itchy Nose, Median",Day 7,−1.00
same,"Change from Baseline in AM and PM Combined Nasal Symptom Score: Runny Nose, LS Mean",Day 7,−1.28
same,"Change from Baseline in AM and PM Combined Nasal Symptom Score: Runny Nose, Mean",Day 7,−1.31
same,"Change from Baseline in AM and PM Combined Nasal Symptom Score: Runny Nose, Median",Day 7,−1.45
same,"Change from Baseline in AM and PM Combined Nasal Symptom Score: Sneezing, LS Mean",Day 7,−1.44
same,"Change from Baseline in AM and PM Combined Nasal Symptom Score: Sneezing, Mean",Day 7,−1.33
same,"Change from Baseline in AM and PM Combined Nasal Symptom Score: Sneezing, Median",Day 7,−1.20
same,"Percent Change from Baseline in AM and PM Combined Nasal Symptom Score: Congestion, LS Mean",Day 7,−19.42%
same,"Percent Change from Baseline in AM and PM Combined Nasal Symptom Score: Congestion, Mean",Day 7,−20.17%
same,"Percent Change from Baseline in AM and PM Combined Nasal Symptom Score: Congestion, Median",Day 7,−21.31%
same,"Percent Change from Baseline in AM and PM Combined Nasal Symptom Score: Itchy Nose, LS Mean",Day 7,−27.79%
same,"Percent Change from Baseline in AM and PM Combined Nasal Symptom Score: Itchy Nose, Mean",Day 7,−26.92%
same,"Percent Change from Baseline in AM and PM Combined Nasal Symptom Score: Itchy Nose, Median",Day 7,−23.55%
same,"Percent Change from Baseline in AM and PM Combined Nasal Symptom Score: Runny Nose, LS Mean",Day 7,−18.01%
same,"Percent Change from Baseline in AM and PM Combined Nasal Symptom Score: Runny Nose, Mean",Day 7,−18.63%
same,"Percent Change from Baseline in AM and PM Combined Nasal Symptom Score: Runny Nose, Median",Day 7,−28.99%
same,"Percent Change from Baseline in AM and PM Combined Nasal Symptom Score: Sneezing, LS Mean",Day 7,−31.86%
same,"Percent Change from Baseline in AM and PM Combined Nasal Symptom Score: Sneezing, Mean",Day 7,−30.14%
same,"Percent Change from Baseline in AM and PM Combined Nasal Symptom Score: Sneezing, Median",Day 7,−31.32%
same,"Change from Baseline in AM and PM Combined Nasal Symptom Score: Congestion, LS Mean",Day 8,−0.94
same,"Change from Baseline in AM and PM Combined Nasal Symptom Score: Congestion, Mean",Day 8,−0.98
same,"Change from Baseline in AM and PM Combined Nasal Symptom Score: Congestion, Median",Day 8,−0.83
same,"Change from Baseline in AM and PM Combined Nasal Symptom Score: Itchy Nose, LS Mean",Day 8,−1.33
same,"Change from Baseline in AM and PM Combined Nasal Symptom Score: Itchy Nose, Mean",Day 8,−1.29
same,"Change from Baseline in AM and PM Combined Nasal Symptom Score: Itchy Nose, Median",Day 8,−1.15
same,"Change from Baseline in AM and PM Combined Nasal Symptom Score: Runny Nose, LS Mean",Day 8,−0.95
same,"Change from Baseline in AM and PM Combined Nasal Symptom Score: Runny Nose, Mean",Day 8,−0.98
same,"Change from Baseline in AM and PM Combined Nasal Symptom Score: Runny Nose, Median",Day 8,−0.73
same,"Change from Baseline in AM and PM Combined Nasal Symptom Score: Sneezing, LS Mean",Day 8,−1.41
same,"Change from Baseline in AM and PM Combined Nasal Symptom Score: Sneezing, Mean",Day 8,−1.29
same,"Change from Baseline in AM and PM Combined Nasal Symptom Score: Sneezing, Median",Day 8,−1.25
same,"Percent Change from Baseline in AM and PM Combined Nasal Symptom Score: Congestion, LS Mean",Day 8,−17.55%
same,"Percent Change from Baseline in AM and PM Combined Nasal Symptom Score: Congestion, Mean",Day 8,−17.88%
same,"Percent Change from Baseline in AM and PM Combined Nasal Symptom Score: Congestion, Median",Day 8,−14.29%
same,"Percent Change from Baseline in AM and PM Combined Nasal Symptom Score: Itchy Nose, LS Mean",Day 8,−28.16%
same,"Percent Change from Baseline in AM and PM Combined Nasal Symptom Score: Itchy Nose, Mean",Day 8,−27.33%
same,"Percent Change from Baseline in AM and PM Combined Nasal Symptom Score: Itchy Nose, Median",Day 8,−30.22%
same,"Percent Change from Baseline in AM and PM Combined Nasal Symptom Score: Runny Nose, LS Mean",Day 8,−11.82%
same,"Percent Change from Baseline in AM and PM Combined Nasal Symptom Score: Runny Nose, Mean",Day 8,−12.38%
same,"Percent Change from Baseline in AM and PM Combined Nasal Symptom Score: Runny Nose, Median",Day 8,−14.29%
same,"Percent Change from Baseline in AM and PM Combined Nasal Symptom Score: Sneezing, LS Mean",Day 8,−28.16%
same,"Percent Change from Baseline in AM and PM Combined Nasal Symptom Score: Sneezing, Mean",Day 8,−26.04%
same,"Percent Change from Baseline in AM and PM Combined Nasal Symptom Score: Sneezing, Median",Day 8,−31.03%
